# pIC50, pKd, pKi: −log10 of the molar value. Counter-ions that a name gives are not always drawn. Like-named read-outs stand apart in the source and are kept apart here.
# Assays:
# [1] = biological target: recombinant HparOBP14 (Holotrichia parallela, UniProt A0A0G2YD86); assay: biochemical; assay type: binding; settings: for binding ability with HparOBP14: 1-NPN displacement, Figure 5
# Procedure: To determine the affinity of HparOBP14 to odorant volatiles, the fluorescent displacement binding assay was carried out. A total of 27 compounds was selected, including 7 compounds from host plant (elm) volatiles, 11 compounds from organic fertilizer volatiles, and 9 compounds common in both of them. The odorant compounds (purity ≥95%) were purchased from Sigma-Aldrich. The fluorescent probe N-phenyl-1-naphthylamine (1-NPN) was dissolved in methanol (chromatographic grade) to a final concentration of 1 mM and used as the stock solution. The stock solution of the purified protein was diluted with Tris-HCl (50 mmol/L, pH 7.4) to a final concentration of 2 μM and added into a colorimetric plate cuvette. The 1-NPN stock solution was then successively added to the protein solution to the final concentrations ranging from 2 μM to 20 μM. The fluorescence changes were recorded to get K1-NPN, the dissociation constant of the complex HparOBP14/1-NPN.
# The binding ability of HparOBP14 to the odorant compounds was determined by titrating the mixture of the protein and the 1-NPN (final concentration 2 μM of both) with each odorant compound at final concentrations ranging from 2 μM to 40 μM. The competitive dissociation constant was calculated from the corresponding IC50 values using the following equation: Ki = [IC50]/(1+ [1-NPN]/K1-NPN), where [1-NPN] is the free concentration of 1-NPN; K1-NPN is the dissociation constant of the complex HparOBP14/1-NPN.
# The fluorescence changes during the binding of either 1-NPN or odorant compounds to the HparOBP14 protein were measured and recorded with the excitation wavelength of 337 nm and within a wavelength range of 350~550 nm by a 970CRT fluorescence spectrophotometer (Yidian Analytical Instrument Company, Shanghai, China).
# [2] = tested on: antennae of H. parallela female adults; assay: Electroantennogram (EAG) recording after dsRNA injection; assay type: in vivo, Holotrichia parallela; settings: 20 μL of 1 μg/μL in paraffin oil; for change of EAG responsive amplitude in dsHparOBP14-injected insects compared to uninjected control: 48 h after dsHparOBP14 injection; for EAG response: female adults
# Procedure: (§1) The dsRNAs of HparOBP14 and GFP (GenBank number: ACY56286) (for primers, see Table S1) were synthesized using a T7 Ribo MAX™ Express RNAi System (Promega, Madison, WI, USA) according to the manufacturer’s instructions. The GFP-dsRNA was used as the negative control. Nine-to-eleven-day-old female adult beetles were injected with 2 μg dsRNA into the adult head with a 5 μL injection needle (7000 series syringes, Hamilton, USA), then kept under the same condition as 2.1 described above. The antennae were dissected at 24 h, 48 h, 72 h, and 96 h after injection, and the samples were stored at −80 °C for further RT-qPCR analyses.
# The EAG recording was conducted on the adult antennae with the EAG micromanipulator MP-15 and analyzed with EAG-Pro (Syntech, Kirchzarten, Germany). Briefly, two ends of the antennae were set on electrode holders with a conductive adhesive (Spectra 360 electrode gel). An ashless filter paper (Hangzhou Special Paper Co., Ltd., Hangzhou, China) was cut into strips (3 cm × 0.5 cm). A 20 μL compound solution (concentration 1 μg/μL in paraffin oil) was applied onto the paper strip which was then placed in a Pasteur tube (17 cm × […]) and applied to the antennae by purified air at a flow rate of 1 L/min. The paraffin oil (20 μL) was used as a control. The stimulus recording time was 0.5 s and the interval between two stimulations was more than 1 min.
# [3] = tested on: female Holotrichia parallela adults; assay: Y-tube olfactometer behavioral bioassay; assay type: in vivo; settings: for change of attraction after injection of dsHparOBP14: dsHparOBP14-injected females; for behavioral response of uninjected female beetles: uninjected females, vs paraffin oil
# Procedure: as §1
# The Y-tube olfactometer mainly consisted of a Y-shaped glass tube (main arm, 30 cm; sidearm, 20 cm; inner diameter, 2.5 cm; side arm angle, 60 degrees), an air sampler, a drying tower, a gas scrubber, and a flow meter. Two gas-washing cylinders were successively connected with the flow meter, drying tower, air pump, and Y-shaped glass tube through rubber pipes. The testing compound (concentration 1 μg/μL in paraffin oil) and paraffin oil (as control) were taken and dropped respectively into a rubber septum (Pherobio Technology Co., Ltd., Beijing, China) and placed respectively into the side arms of the Y-tube. The flow rate of the atmospheric air sampler was adjusted to 500 mL/min.
# A female adult beetle was introduced into the main arm at the downwind end of the Y-olfactometer. Each beetle was given 5 min to respond to the treatment, and the first choice that the beetle made for each of the lateral arms was recorded. The response was regarded as valid only if the beetle crawled more than 3 cm into a lateral arm and stayed for more than 1 min.
# For each compound, more than 90 beetles were tested individually until 90 responsive beetles were obtained. Each individual beetle was tested only once, and the Y-olfactometer was replaced after every 10 beetles were tested to eliminate the odor effect. The number of individual beetles that selected the compound-treated arm of the Y-olfactometer was statistically compared with the number of beetles that selected the solvent-treated arm using a Chi-square goodness of fit test.
# [4] = HparOBP14 and 1-NPN 2 µM each, titrated with compound 2–40 μM
# [5] = calculated from IC50: Ki = [IC50]/(1+[1-NPN]/K1-NPN), read-out: Ki
# [6] = HparOBP14 and 1-NPN 2 µM each, titrated with compound 2–40 μM, read-out: IC50
# Sequence of recombinant HparOBP14 (A0A0G2YD86 entry or part of it): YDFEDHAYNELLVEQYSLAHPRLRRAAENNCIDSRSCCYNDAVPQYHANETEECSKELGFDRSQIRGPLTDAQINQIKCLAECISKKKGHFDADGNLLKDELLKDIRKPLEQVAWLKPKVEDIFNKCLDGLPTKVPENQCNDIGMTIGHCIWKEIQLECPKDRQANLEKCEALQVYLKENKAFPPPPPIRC
smiles,measurement,setting,value
CC1=CC[C@H](C(C)C)C=C1 (racemic) [α-phellandrene],pIC50,[1],< 4.40
same,pKi,[1],< 4.47
same,binding ability with HparOBP14,[1],"weaker, or no, binding ability"
same,Int (%): relative fluorescence intensity of 1-NPN/HparOBP14 complex after the addition of testing compound,[1]; [4],83.00%
"c1ccc(Nc2cccc3ccccc23)cc1 [1-NPN, N-phenyl-1-naphthylamine, reference compound]",pKd,[1],5.24
CCCCCCCO [1-heptanol],pIC50,[1],< 4.40
same,Int (%): relative fluorescence intensity of 1-NPN/HparOBP14 complex after the addition of testing compound,[1]; [4],83.41%
same,pKi,[1]; [5],< 4.47
CCCCCCO [1-hexanol],pIC50,[1],< 4.40
same,Int (%): relative fluorescence intensity of 1-NPN/HparOBP14 complex after the addition of testing compound,[1]; [4],72.19%
same,pKi,[1]; [5],< 4.47
CCCCCCCCC=O [1-nonanal],Int (%): relative fluorescence intensity of 1-NPN/HparOBP14 complex after the addition of testing compound,[1]; [4],69.22%
same,pIC50,[1]; [6],< 4.40
same,pKi,[1]; [5],< 4.47
CCCCC(CC)CO (stereo not drawn) [2-ethylhexanol],binding ability with HparOBP14,[1],"weaker, or no, binding ability"
same,Int (%): relative fluorescence intensity of 1-NPN/HparOBP14 complex after the addition of testing compound,[1]; [4],85.80%
same,pIC50,[1]; [6],< 4.40
same,pKi,[1]; [5],< 4.47
CC1=CCC2C(C1)C2(C)C (stereo not drawn) [3-carene],Int (%): relative fluorescence intensity of 1-NPN/HparOBP14 complex after the addition of testing compound,[1]; [4],68.52%
same,pIC50,[1]; [6],< 4.40
same,pKi,[1]; [5],< 4.47
CCCC(O)CC (stereo not drawn) [3-hexanol],Int (%): relative fluorescence intensity of 1-NPN/HparOBP14 complex after the addition of testing compound,[1]; [4],84.27%
same,pIC50,[1]; [6],< 4.40
same,pKi,[1]; [5],< 4.47
Cc1c[nH]c2ccccc12 [3-methylindole],Int (%): relative fluorescence intensity of 1-NPN/HparOBP14 complex after the addition of testing compound,[1]; [4],56.22%
same,pIC50,[1]; [6],4.61
same,pKi,[1]; [5],4.68
same,change of EAG responsive amplitude in dsHparOBP14-injected insects compared to uninjected control,[2],do not change significantly
same,EAG response,[2],clear responses
same,change of attraction after injection of dsHparOBP14,[3],no obvious change
same,behavioral response of uninjected female beetles,[3],attracted
CC(=O)CCC=C(C)C [6-methyl-5-hepten-2-one],pIC50,[1],4.49
same,pKi,[1],4.55
same,Int (%): relative fluorescence intensity of 1-NPN/HparOBP14 complex after the addition of testing compound,[1]; [4],61.66%
same,change of EAG responsive amplitude in dsHparOBP14-injected insects compared to uninjected control,[2],do not change significantly
same,EAG response,[2],clear responses
same,change of attraction after injection of dsHparOBP14,[3],significantly increased
same,behavioral response of uninjected female beetles,[3],attracted
CC/C=C\CCO [(Z)-3-hexen-1-ol],pIC50,[1],< 4.40
same,pKi,[1],< 4.47
same,Int (%): relative fluorescence intensity of 1-NPN/HparOBP14 complex after the addition of testing compound,[1]; [4],96.53%
CCCC(=O)O [butyric acid],pIC50,[1],< 4.40
same,pKi,[1],< 4.47
same,Int (%): relative fluorescence intensity of 1-NPN/HparOBP14 complex after the addition of testing compound,[1]; [4],99.07%
C=C1C2CCC(C2)C1(C)C (stereo not drawn) [camphene],Int (%): relative fluorescence intensity of 1-NPN/HparOBP14 complex after the addition of testing compound,[1]; [4],83.88%
same,pIC50,[1]; [6],< 4.40
same,pKi,[1]; [5],< 4.47
CC/C=C\CCOC(C)=O [cis-3-hexenyl acetate],binding ability with HparOBP14,[1],"weaker, or no, binding ability"
same,Int (%): relative fluorescence intensity of 1-NPN/HparOBP14 complex after the addition of testing compound,[1]; [4],81.43%
same,pIC50,[1]; [6],< 4.40
same,pKi,[1]; [5],< 4.47
CC/C=C\CCOC=O [cis-3-hexenyl formate],binding ability with HparOBP14,[1],"weaker, or no, binding ability"
same,Int (%): relative fluorescence intensity of 1-NPN/HparOBP14 complex after the addition of testing compound,[1]; [4],81.25%
same,pIC50,[1]; [6],< 4.40
same,pKi,[1]; [5],< 4.47
CCCCCCCCCC=O [decanal],Int (%): relative fluorescence intensity of 1-NPN/HparOBP14 complex after the addition of testing compound,[1]; [4],77.88%
same,pIC50,[1]; [6],< 4.40
same,pKi,[1]; [5],< 4.47
CCCCCCCCCCCC=O [dodecyl aldehyde],Int (%): relative fluorescence intensity of 1-NPN/HparOBP14 complex after the addition of testing compound,[1]; [4],92.42%
same,pIC50,[1]; [6],< 4.40
same,pKi,[1]; [5],< 4.47
C=CCc1ccc(O)c(OC)c1 [eugenol],pIC50,[1],< 4.40
same,pKi,[1],< 4.47
same,Int (%): relative fluorescence intensity of 1-NPN/HparOBP14 complex after the addition of testing compound,[1]; [4],86.03%
C=O [formaldehyde],Int (%): relative fluorescence intensity of 1-NPN/HparOBP14 complex after the addition of testing compound,[1]; [4],68.91%
same,pIC50,[1]; [6],4.46
same,pKi,[1]; [5],4.53
same,change of EAG responsive amplitude in dsHparOBP14-injected insects compared to uninjected control,[2],decreased significantly
same,change of attraction after injection of dsHparOBP14,[3],no obvious change
same,behavioral response of uninjected female beetles,[3],attracted
CC(C)=CCC/C(C)=C/CO [geraniol],pIC50,[1],4.40
same,pKi,[1],4.47
same,Int (%): relative fluorescence intensity of 1-NPN/HparOBP14 complex after the addition of testing compound,[1]; [4],72.07%
same,change of EAG responsive amplitude in dsHparOBP14-injected insects compared to uninjected control,[2],decreased significantly
same,change of attraction after injection of dsHparOBP14,[3],markedly reduced
same,behavioral response of uninjected female beetles,[3],attracted
c1ccc2[nH]ccc2c1 [indole],pIC50,[1],< 4.40
same,pKi,[1],< 4.47
same,Int (%): relative fluorescence intensity of 1-NPN/HparOBP14 complex after the addition of testing compound,[1]; [4],82.23%
C=CC(C)(O)CCC=C(C)C (stereo not drawn) [linalool],pIC50,[1],< 4.40
same,pKi,[1],< 4.47
same,binding ability with HparOBP14,[1],"weaker, or no, binding ability"
same,Int (%): relative fluorescence intensity of 1-NPN/HparOBP14 complex after the addition of testing compound,[1]; [4],89.20%
CO [methanol],Int (%): relative fluorescence intensity of 1-NPN/HparOBP14 complex after the addition of testing compound,[1]; [4],65.66%
same,pIC50,[1]; [6],4.49
same,pKi,[1]; [5],4.56
same,change of EAG responsive amplitude in dsHparOBP14-injected insects compared to uninjected control,[2],decreased significantly
same,change of attraction after injection of dsHparOBP14,[3],markedly reduced
same,behavioral response of uninjected female beetles,[3],attracted
CCCCCCCC=O [octanal],pIC50,[1]; [6],< 4.40
same,pKi,[1]; [5],< 4.47
Cc1ccc(O)cc1 [p-cresol],pIC50,[1],< 4.40
same,pKi,[1],< 4.47
same,Int (%): relative fluorescence intensity of 1-NPN/HparOBP14 complex after the addition of testing compound,[1]; [4],91.23%
C=C1CC/C=C(\C)CC[C@@H]2[C@@H]1CC2(C)C [β-caryophyllen],pIC50,[1]; [6],< 4.40
same,pKi,[1]; [5],< 4.47
